The subject of the test is Gram-negative and Gram-positive bacteria. Briefly: Bacterial resistance (growth inhibition) assay, environmental isolates. To be noted: M9 medium, 24 h; except B. gladioli GSRB05 and P. putida KT2440; PT as L-PT. Format: cell-based.

From US12414932B2, “Arsinothricin and methods of treating infections using arsinothricin” (priority 2018, dated 2025) come the findings set out here.

Turning to `CP(=O)(O)CCC(N)C(=O)O` (racemic) [PT, phosphinothricin, reference compound], the “concentration inhibiting each species to the same degree” value is 400 µM.
